The test system of experiment [1] is peptide-pulsed target cells and transfected cells endogenously expressing the antigen. The experiment in a line: Recall CTL responses of PBMCs from ovarian cancer patients. The conditions noted are these: for recognition by CTLs from cancer patient PBMCs: two patients with ovarian cancer, peptide-pulsed targets and transfected cells; for CTL Tumor / CTL Wildtype: data from ovarian cancer patients. Format: cell-based, human.
Excerpt: Immunogenicity was additionally confirmed using PBMCs isolated from cancer patients. Briefly, PBMCs were isolated from two patients with ovarian cancer, re-stimulated with peptide-pulsed monocytes and assayed for the ability to recognize peptide-pulsed target cells as well as transfected cells endogenously expressing the antigen.

For a further experiment, the target named is HLA-A*0301 (Homo sapiens, UniProt P04439). Format: binding. The conditions noted are these: Table XXIII, HLA-A3 supermotif-bearing peptides.
Another experiment addresses HLA-A*1101 (Homo sapiens, UniProt P04439, A114D/D185E/E176A/F33Y/L180Q/S129P/T187R). Format: binding. The following applies: Table XXIII, HLA-A3 supermotif-bearing peptides.
The target of another experiment is HLA-A*3101 (Homo sapiens, UniProt P04439, A270S/D185E/E176V/E277Q/F33T/G231S/G80R/H175R/I121M/I218V/I322F/K168Q/L300P/L318F/M331R/P217A/Q94H/R138Q/T323A/T345S/T97I/V358M). Format: binding. The conditions noted are these: Table XXIII, HLA-A3 supermotif-bearing peptides.
Another experiment deals with HLA-A*3301 (Homo sapiens, UniProt P04439, A270S/D185E/E176V/E277Q/E87N/F33T/G231S/H175R/I121M/I218V/I322F/K168Q/K210R/L300P/L318F/M331R/P217A/Q86R/Q94H/R138Q/T323A/T345S/T97I/V358M/Y195H). Format: binding. The following applies: Table XXIII, HLA-A3 supermotif-bearing peptides.
The target in the next experiment is HLA-A*6801 (Homo sapiens, UniProt P04439, A269V/D185E/E176V/E277Q/E87N/F33Y/G231S/I121M/I166T/I218V/L180W/L300P/L318F/N151K/P208A/P217A/Q86R/R169H/T345S). Format: binding. The following applies: Table XXIII, HLA-A3 supermotif-bearing peptides.
For experiment [2], the system named is A3-supertype alleles (A*0301, A*1101, A*3101, A*3301, A*6801). The experiment in a line: A3-supertype cross-reactive binding. On the set-up: species or system human. The following applies: of five A3-supertype alleles tested.

The IC50 is the point on the concentration scale where inhibition reaches its midpoint. A low value points to greater potency.

Where no end group is shown, it is not given here.

HLA-A*1101, sequence (P04439 25-365 limits assumed, stated change not applied): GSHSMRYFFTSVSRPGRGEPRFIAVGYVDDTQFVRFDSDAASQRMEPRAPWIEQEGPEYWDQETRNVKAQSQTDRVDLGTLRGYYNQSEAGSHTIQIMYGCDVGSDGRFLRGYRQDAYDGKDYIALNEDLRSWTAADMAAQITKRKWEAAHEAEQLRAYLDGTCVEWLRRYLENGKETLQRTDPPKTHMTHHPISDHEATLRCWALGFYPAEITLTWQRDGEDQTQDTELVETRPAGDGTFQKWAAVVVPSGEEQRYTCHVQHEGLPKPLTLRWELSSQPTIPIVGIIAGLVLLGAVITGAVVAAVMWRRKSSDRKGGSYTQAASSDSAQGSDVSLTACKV

For the compound `CC(C)C[C@H](NC(=O)[C@@H](N)Cc1c[nH]cn1)C(=O)N[C@@H](Cc1ccc(O)cc1)C(=O)N[C@@H](CCC(N)=O)C(=O)NCC(=O)N[C@@H](CS)C(=O)N[C@@H](CCC(N)=O)C(=O)N[C@H](C(=O)N[C@H](C(=O)O)C(C)C)C(C)C` [Her2/neu.48], the “recognition by CTLs from cancer patient PBMCs” value (“recognition by CTLs” below) in experiment [1] is on record as “recognized in 2 donors”.
For `CC[C@H](C)[C@H](N)C(=O)N[C@@H](CC(C)C)C(=O)N[C@@H](CCCCN)C(=O)NCC(=O)NCC(=O)N[C@H](C(=O)N[C@@H](CC(C)C)C(=O)N[C@H](C(=O)N[C@@H](CCC(N)=O)C(=O)N[C@@H](CCCNC(=N)N)C(=O)O)[C@@H](C)CC)C(C)C` [Her2/neu.148], the concentration for half-maximal inhibition (IC50) against HLA-A*0301 is 275 nM; on HLA-A*1101 it was more than 10000 nM; at HLA-A*3101, 25 nM; on HLA-A*3301, 121 nM; against HLA-A*6801, 205 nM.
On to `CC[C@H](C)[C@H](N)C(=O)N[C@H](C(=O)N[C@@H](Cc1c[nH]c2ccccc12)C(=O)N[C@@H](CCCCN)C(=O)N[C@@H](CC(=O)O)C(=O)N[C@H](C(=O)N[C@@H](Cc1ccccc1)C(=O)N[C@@H](Cc1c[nH]cn1)C(=O)N[C@@H](CCCCN)C(=O)O)[C@@H](C)CC)C(C)C` [Her2/neu.167.V2], for which the IC50 against HLA-A*0301 worked out at 23 nM; on HLA-A*1101, 40 nM; on HLA-A*3101 it was 247 nM; on HLA-A*3301, 853 nM; against HLA-A*6801, 178 nM.
For the compound `CSCC[C@H](NC(=O)[C@@H](N)C(C)C)C(=O)N[C@@H](C)C(=O)NCC(=O)N[C@H](C(=O)NCC(=O)N[C@@H](CO)C(=O)N1CCC[C@H]1C(=O)N[C@@H](Cc1ccc(O)cc1)C(=O)N[C@H](C(=O)O)C(C)C)C(C)C`, in experiment [1], the “CTL Tumor” value was 1/2 and the “CTL Wildtype” value is reported as 1/2.
As to TILWKDIFHK [Her2/neu.166], the IC50 on HLA-A*0301 is 256 nM; against HLA-A*1101, 1.7 nM; at HLA-A*3101, 487 nM; on HLA-A*3301, 690 nM; at HLA-A*6801, 200 nM.
For the compound `CC[C@H](C)[C@H](N)C(=O)N[C@H](C(=O)N[C@@H](Cc1c[nH]c2ccccc12)C(=O)N[C@@H](CCCCN)C(=O)N[C@@H](CC(=O)O)C(=O)N[C@H](C(=O)N[C@@H](Cc1ccccc1)C(=O)N[C@@H](Cc1c[nH]cn1)C(=O)N[C@@H](CCCNC(=N)N)C(=O)O)[C@@H](C)CC)C(C)C` [Her2/neu.167.V2R9], the IC50 against HLA-A*0301 amounted to 143 nM; on HLA-A*1101, 286 nM; against HLA-A*3101, 6 nM; on HLA-A*3301 it was 16 nM; on HLA-A*6801, 15 nM.
On the same counts, the results for `CC[C@H](C)[C@H](NC(=O)[C@H](CC(=O)O)NC(=O)[C@H](CCCCN)NC(=O)[C@H](Cc1c[nH]c2ccccc12)NC(=O)[C@H](CC(C)C)NC(=O)[C@@H](NC(=O)[C@@H](N)[C@@H](C)O)C(C)C)C(=O)N[C@@H](Cc1ccccc1)C(=O)N[C@@H](Cc1c[nH]cn1)C(=O)N[C@@H](CCCNC(=N)N)C(=O)O` [Her2/neu.166.V2R10] are 8460 nM, 286 nM, 600 nM, 76 nM and 42 nM.
On the same counts, the results for `CC[C@H](C)[C@H](N)C(=O)N[C@@H](CC(C)C)C(=O)N[C@@H](Cc1c[nH]c2ccccc12)C(=O)N[C@@H](CCCCN)C(=O)N[C@@H](CC(=O)O)C(=O)N[C@H](C(=O)N[C@@H](Cc1ccccc1)C(=O)N[C@@H](Cc1c[nH]cn1)C(=O)N[C@@H](CCCCN)C(=O)O)[C@@H](C)CC` [Her2/neu.167] are 39 nM, 19 nM, 82 nM, 967 nM and 1740 nM.
In the case of HVVPWDQLFR [Her2/neu.478.V2], the 50% inhibitory concentration (IC50) was determined as 7330 nM against HLA-A*0301, 1330 nM at HLA-A*1101, 193 nM against HLA-A*3301 and 3.6 nM at HLA-A*6801. Besides, the “No. of A3 Alleles Crossbound” value in experiment [2] turned out to be 3.
Regarding `CSCC[C@H](NC(=O)[C@@H](N)C(C)C)C(=O)N[C@@H](C)C(=O)NCC(=O)N[C@H](C(=O)NCC(=O)N[C@@H](CO)C(=O)N1CCC[C@H]1C(=O)N[C@@H](Cc1ccc(O)cc1)C(=O)N[C@H](C(=O)O)C(C)C)C(C)C` [Her2/neu.773], in experiment [1], the “recognition by CTLs” value is given as “recognized by CTLs from only one of the two patients”.
Still for that read-out and setting: the result for `CC[C@H](C)[C@H](N)C(=O)N[C@@H](CC(C)C)C(=O)N[C@@H](Cc1c[nH]cn1)C(=O)N[C@@H](CC(N)=O)C(=O)NCC(=O)N[C@@H](C)C(=O)N[C@@H](Cc1ccc(O)cc1)C(=O)N[C@@H](CO)C(=O)N[C@@H](CC(C)C)C(=O)O` [Her2/neu.435] reads “recognized in 2 donors”.
Consider `CC(C)C[C@H](NC(=O)[C@H](CCC(N)=O)NC(=O)[C@@H](NC(=O)[C@@H](NC(=O)[C@H](CO)NC(=O)[C@@H](NC(=O)[C@H](CC(C)C)NC(=O)[C@@H](N)CS)[C@@H](C)O)[C@@H](C)O)C(C)C)C(=O)N[C@H](C(=O)O)C(C)C` [Her2/neu.789], for which the “recognition by CTLs” value in experiment [1] is “recognized peptide-pulsed targets only”.
Same read-out and setting: the result for `CC[C@H](C)[C@H](NC(=O)CNC(=O)[C@H](Cc1ccccc1)NC(=O)[C@@H](NC(=O)[C@@H](NC(=O)CNC(=O)[C@H](CC(C)C)NC(=O)[C@@H](NC(=O)[C@@H](N)C(C)C)C(C)C)C(C)C)C(C)C)C(=O)O` [Her2/neu.665] reads “recognized by CTLs from only one of the two patients”.
As to `CC[C@H](C)[C@H](NC(=O)[C@H](CCC(=O)O)NC(=O)[C@@H](NC(=O)[C@H](CC(C)C)NC(=O)[C@H](CO)NC(=O)[C@H](CCCNC(=N)N)NC(=O)[C@H](CC(C)C)NC(=O)[C@@H](N)CCC(N)=O)[C@@H](C)O)C(=O)N[C@@H](CC(C)C)C(=O)N[C@@H](CCCCN)C(=O)O` [Her2/neu.141], the IC50 was 55 nM on HLA-A*0301; 462 nM on HLA-A*1101; 667 nM on HLA-A*3101; 6170 nM against HLA-A*3301; more than 10000 nM on HLA-A*6801.
Take `CC[C@H](C)[C@H](N)C(=O)N[C@H](C(=O)N[C@@H](CCCCN)C(=O)NCC(=O)NCC(=O)N[C@H](C(=O)N[C@@H](CC(C)C)C(=O)N[C@H](C(=O)N[C@@H](CCC(N)=O)C(=O)N[C@@H](CCCNC(=N)N)C(=O)O)[C@@H](C)CC)C(C)C)C(C)C` [Her2/neu.148.V2]: the IC50 against HLA-A*0301 is 275 nM; at HLA-A*1101, 7500 nM; against HLA-A*3101 it was 72 nM; against HLA-A*6801, 29 nM.
Regarding `CC[C@H](C)[C@H](NC(=O)[C@H](CC(C)C)NC(=O)[C@@H](N)C(C)C)C(=O)N[C@@H](CCC(N)=O)C(=O)N[C@@H](CCCNC(=N)N)C(=O)N[C@@H](CC(N)=O)C(=O)N1CCC[C@H]1C(=O)N[C@@H](CCC(N)=O)C(=O)N[C@@H](CC(C)C)C(=O)O` [Her2/neu.153], the “recognition by CTLs” value in experiment [1] is given as “recognized peptide-pulsed targets only”.
Regarding `CC(C)C[C@H](NC(=O)[C@H](CC(C)C)NC(=O)[C@@H](N)CCCNC(=N)N)C(=O)N[C@@H](CCC(N)=O)C(=O)N[C@@H](CCC(=O)O)C(=O)N[C@H](C(=O)N[C@@H](CCC(=O)O)C(=O)N[C@@H](CC(C)C)C(=O)N[C@H](C(=O)O)C(C)C)[C@@H](C)O` [Her2/neu.689], the “recognition by CTLs” value in experiment [1] is “is also an epitope”.
For `CC[C@H](C)[C@H](NC(=O)[C@@H](N)CCCCN)C(=O)N[C@@H](Cc1ccccc1)C(=O)NCC(=O)N[C@@H](CO)C(=O)N[C@@H](CC(C)C)C(=O)N[C@@H](C)C(=O)N[C@@H](Cc1ccccc1)C(=O)N[C@@H](CC(C)C)C(=O)O` [Her2/neu.369], in experiment [1], the “recognition by CTLs” value is “recognized in 2 donors”.
In the case of `CC(C)C[C@H](NC(=O)[C@@H](N)Cc1c[nH]cn1)C(=O)N[C@@H](Cc1ccc(O)cc1)C(=O)N[C@@H](CCC(N)=O)C(=O)NCC(=O)N[C@@H](CS)C(=O)N[C@@H](CCC(N)=O)C(=O)N[C@H](C(=O)N[C@H](C(=O)O)C(C)C)C(C)C`, in experiment [1], the “CTL Tumor” value is 1/2 and the “CTL Wildtype” value is 2/2.
For `CC[C@H](C)[C@H](N)C(=O)N[C@H](C(=O)N[C@@H](CCCCN)C(=O)NCC(=O)NCC(=O)N[C@H](C(=O)N[C@@H](CC(C)C)C(=O)N[C@H](C(=O)N[C@@H](CCC(N)=O)C(=O)N[C@@H](CCCCN)C(=O)O)[C@@H](C)CC)C(C)C)C(C)C` [Her2/neu.148.V2K10], the concentration for half-maximal inhibition (IC50) is 26 nM against HLA-A*0301; 102 nM against HLA-A*1101; 450 nM against HLA-A*3101; 6590 nM on HLA-A*3301; 27 nM on HLA-A*6801.
Regarding `CC[C@H](C)[C@H](N)C(=O)N[C@@H](CC(C)C)C(=O)N[C@@H](Cc1c[nH]cn1)C(=O)N[C@@H](CC(N)=O)C(=O)NCC(=O)N[C@@H](C)C(=O)N[C@@H](Cc1ccc(O)cc1)C(=O)N[C@@H](CO)C(=O)N[C@@H](CC(C)C)C(=O)O`, in experiment [1], the “CTL Tumor” value is 2/2 and the “CTL Wildtype” value is 2/2.
